For four compounds, Activity and IC50 results are on record in ChEMBL document CHEMBL1150969, “New alkaloids from the papua new guinean sponge agelas nakamurai” (J Nat Prod, 1998).

Experiment [1] concerns Escherichia coli. The experiment in a line: Antimicrobial activity against Escherichia coli upto 12.5 ug/ml. The class given is functional, organism-based.
Experiment [2] concerns Pseudomonas aeruginosa. Put plainly: Antimicrobial activity against Pseudomonas aeruginosa upto 12.5 ug/ml. The experiment is classed as functional, organism-based.
In experiment [3] the target is Human immunodeficiency virus type 1 integrase (Human immunodeficiency virus 1) (UniProt Q7ZJM1). The experiment in a line: Inhibition of HIV1 integrase at 10 ug/ml.
Experiment [4] concerns Staphylococcus epidermidis. Put plainly: Antimicrobial activity against Staphylococcus epidermidis 13889. The class given is functional, organism-based.
In experiment [5] the test system is Enterococcus faecalis. The experiment in a line: Antimicrobial activity against Enterococcus faecalis 12964. The class given is functional, organism-based.
Experiment [6] relates to Staphylococcus aureus. The experiment in a line: Antimicrobial activity against Staphylococcus aureus 12732. The class given is functional, organism-based.
Experiment [7] has as its system Staphylococcus aureus. The experiment in a line: Antimicrobial activity against methicillin-resistant Staphylococcus aureus. The experiment is classed as functional, organism-based.
For experiment [8], the system named is Candida albicans. Put plainly: Antimicrobial activity against Candida albicans IFO 1269. The class given is functional, organism-based.
For experiment [9], the system named is Cryptococcus neoformans. Put plainly: Antimicrobial activity against Cryptococcus neoformans TIMM 0354. The class given is functional, organism-based.
Experiment [10] concerns Enterococcus faecium. The experiment in a line: Antimicrobial activity against Enterococcus faecium 12367. The experiment is classed as functional, organism-based.

Values after ≈ are worked out from the molar mass of the structure shown. Active and inactive are the calls of the source. No cut-off for these calls is given here.

Chain of Human immunodeficiency virus type 1 integrase (Human immunodeficiency virus 1) (Q7ZJM1 as listed by the source): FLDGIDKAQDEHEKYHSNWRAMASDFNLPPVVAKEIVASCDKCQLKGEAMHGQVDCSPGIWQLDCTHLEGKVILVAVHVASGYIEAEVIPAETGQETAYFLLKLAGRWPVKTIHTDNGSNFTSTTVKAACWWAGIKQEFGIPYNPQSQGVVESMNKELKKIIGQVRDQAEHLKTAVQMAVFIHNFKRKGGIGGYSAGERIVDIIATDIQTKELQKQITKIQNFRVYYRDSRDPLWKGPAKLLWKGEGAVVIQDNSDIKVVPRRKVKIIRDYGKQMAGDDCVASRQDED

Consider `C=C1CC[C@]2(C)[C@@H](C)CCC[C@]2(C)[C@H]1CC/C(C)=C/Cn1c[n+](C)c2ncnc(N)c21`, for which the result in experiment [1], in experiment [2] and in experiment [3] was inactive.
The IC50 is the concentration that gives 50% inhibition. Higher therefore signals lower potency. For the compound `NC(=O)c1ccc(Br)[nH]1`, the IC50 in [4] was 3.13 µg/mL (≈ 16.6 µM); in experiment [5], 6.25 µg/mL (≈ 33.1 µM); in [6], 0.78 µg/mL (≈ 4.13 µM); in experiment [7] it was 3.13 µg/mL (≈ 16.6 µM); in experiment [8] it was 6.25 µg/mL (≈ 33.1 µM); in [9], 3.13 µg/mL (≈ 16.6 µM). In [10], this compound had an IC50 of 3.13 µg/mL (≈ 16.6 µM). For the same compound, the outcome in [1], in [2] and in experiment [3] was inactive.
Take `CC1=CCC[C@@H]2[C@@](C)(CC/C(C)=C/Cn3c[n+](C)c4ncnc(N)c43)[C@H](C)CC[C@@]12C.[Cl-]` [AGELASINE B]: the IC50 in [4] was 1.56 µg/mL; in [5], 6.25 µg/mL; in [6] it was 0.78 µg/mL; in experiment [7], 3.13 µg/mL; in experiment [8] it was greater than 12.5 µg/mL; in [9], 3.13 µg/mL. Besides, the midpoint of inhibition in experiment [10], the IC50, lay at 3.13 µg/mL.
Turning to `COCNC(=O)c1ccc(Br)[nH]1`, the outcome in [1], in [2] and in experiment [3] was inactive.
